Results as given in US20180228795A1, “COMBINATION THERAPY FOR CANCER” (Eli Lilly and Company, priority 2015, published 2018).

Legend:
Assay type in all cases: in vivo
[1] = system: PDX TNBC Model CTG-0017; test: Antitumor effects in PDX mouse model of TNBC; details: PDX model CTG-0017; A 10 mg/kg SC BID 3 days on/4 off ×4; B 7.5 mg/kg PO BID×28; versus vehicle
From the text: (§1) Establish PDX tumor models from viable human tumor tissue and serially passage in immunocompromised female mice a limited number of times. Using tumor fragments harvested from donor host animals, perform unilateral subcutaneous implants from a specific passage of the PDX tumor model on the flanks of the experimental animals. When tumor volumes reach approximately 150-250 mm^3 in size, randomize the animals by treatment arm by randomization techniques well known in the art and place into their respective treatment groups using 1 animal per treatment group (3 animals in an untreated group). Formulate CHK1 inhibitor, 5-(5-(2-(3-aminopropoxy)-6-methoxyphenyl)-1H-pyrazol-3-ylamino)pyrazine-2-carbonitrile methanesulfonate hydrate, (Compound A) every 14 days in 20% captisol (dissolved in water) and administer subcutaneously twice daily at a dose of 10 mg/kg on days 1/2/3 of a weekly cycle for 4 weeks (SC, BID [3 days on/4 off]×4). Formulate the PI3K/mTOR dual inhibitor, 8-[5-(1-hydroxy-1-methylethyl)pyridin-3-yl]-1-[(2S)-2-methoxypropyl]-3-methyl-1,3-dihydro-2H-imidazo[4,5-c]quinolin-2-one, (Compound B) weekly in 1% (HEC)/0.25% Tween 80 (Polysorbate 80)/0.05% Dow-Corning Antifoam 1510-US and administer by oral gavage twice-daily for 28 days (PO, BID×28) at a dose of 7.5 mg/kg. Dose combination treatment animals with both compounds according to the schedule described above for monotherapy, and dose vehicle treatment animals with vehicle according to the schedule for Compound B.
(§2) Test the combination of Compound A and Compound B, as well as their respective monotherapies, in 40 PDX models (Table 1) of TNBC. Assess antitumor efficacy of the treatment groups by measuring tumor volume via caliper measurements twice a week during the course of the study. Measure body weight twice weekly during the course of the study as a general indicator of tolerability.
(§3) Capture tumor size and body weight twice per week. Estimate tumor volume (V) by using the formula: V=(π/6)×L×W^2 where L=larger of measured diameter and W=smaller perpendicular diameter. Calculate relative tumor volume using the tumor volume measurement taken nearest to the last day of dosing for each animal (T), divided by the baseline tumor volume for that animal (T0), which is the volume recorded on or just prior to the first day of dosing, Y=T/T0. Calculate % ΔT/ΔC values using the formula % ΔT/ΔC=100(YT−1)/(YC−1), whereby YT or YC=geometric mean relative volume of the compound treated group or the control group, respectively. Tumor growth inhibition is observed in those instances where the calculated values for % ΔT/ΔC are less than 100% whereby greater inhibition results in smaller % ΔT/ΔC values. If ΔT<0, then a tumor regression value is calculated instead of % ΔT/ΔC whereby % Regression=100(YT−1). Note that negative values indicate regression. We collectively refer to % ΔT/ΔC and % Regression as % Response.
(§4) Examine relative tumor volume (final volume divided by baseline volume) on the last day of treatment or the last day on which data from all three treatment groups and vehicle is available, if it is earlier than the last day of treatment and at least 14 days after baseline. Expected additive relative volume is determined using the Bliss method (Bliss, C. I., Ann Appl Biol, 1939; 26(3):585-615). Specifically, denoting Y=relative volume, YExp=(Y1*Y2)/YV, where YExp=expected additive relative volume, Y1 and Y2 are the relative volumes in the single agent groups (Compound A and Compound B), and YV is the relative volume in the vehicle group. A range of additivity is defined around the expected additive relative volume via upper and lower limits as follows:
(§5) Yupper=max(2*YExp,YExp+0.2)
(§6) Ylower=min(YExp/2,YExp−0.2)
(§7) The upper limit of the range is the larger of 2-fold above or 20% above the expected additive relative volume, and the lower limit is the smaller of 2-fold below or 20% below the expected additive relative volume. […]

[2] = system: PDX TNBC Model CTG-0052; test: Antitumor effects in PDX mouse model of TNBC; details: PDX model CTG-0052; A 10 mg/kg SC BID 3 days on/4 off ×4; B 7.5 mg/kg PO BID×28; versus vehicle
From the text: as §1, §2, §3, §4, §5, §6, §7

[3] = system: PDX TNBC Model CTG-1106; test: Antitumor effects in PDX mouse model of TNBC; details: PDX model CTG-1106; A 10 mg/kg SC BID 3 days on/4 off ×4; B 7.5 mg/kg PO BID×28; versus vehicle
From the text: as §1, §2, §3, §4, §5, §6, §7

[4] = system: PDX TNBC Model CTG-1153; test: Antitumor effects in PDX mouse model of TNBC; details: PDX model CTG-1153; A 10 mg/kg SC BID 3 days on/4 off ×4; B 7.5 mg/kg PO BID×28; versus vehicle
From the text: as §1, §2, §3, §4, §5, §6, §7

[5] = system: PDX TNBC Model CTG-1350; test: Antitumor effects in PDX mouse model of TNBC; details: PDX model CTG-1350; A 10 mg/kg SC BID 3 days on/4 off ×4; B 7.5 mg/kg PO BID×28; versus vehicle
From the text: as §1, §2, §3, §4, §5, §6, §7

[6] = system: PDX TNBC Model CTG-1453; test: Antitumor effects in PDX mouse model of TNBC; details: PDX model CTG-1453; A 10 mg/kg SC BID 3 days on/4 off ×4; B 7.5 mg/kg PO BID×28; versus vehicle
From the text: as §1, §2, §3, §4, §5, §6, §7

[7] = system: PDX TNBC Model CTG-1520; test: Antitumor effects in PDX mouse model of TNBC; details: PDX model CTG-1520; A 10 mg/kg SC BID 3 days on/4 off ×4; B 7.5 mg/kg PO BID×28; versus vehicle
From the text: as §1, §2, §3, §4, §5, §6, §7

[8] = system: PDX TNBC Model MAXF 583; test: Antitumor effects in PDX mouse model of TNBC; details: PDX model MAXF 583; A 10 mg/kg SC BID 3 days on/4 off ×4; B 7.5 mg/kg PO BID×28; versus vehicle
From the text: as §1, §2, §3, §4, §5, §6, §7

[9] = system: PDX TNBC Model MAXF MX1; test: Antitumor effects in PDX mouse model of TNBC; details: A 10 mg/kg SC BID 3 days on/4 off ×4, B 7.5 mg/kg PO BID×28, versus vehicle
From the text: as §1, §2, §3, §4, §5, §6, §7

[10] = system: PDX TNBC Model ST035; test: Antitumor effects in PDX mouse model of TNBC; details: A 10 mg/kg SC BID 3 days on/4 off ×4, B 7.5 mg/kg PO BID×28, versus vehicle
From the text: as §1, §2, §3, §4, §5, §6, §7

[11] = system: PDX TNBC Model ST231; test: Antitumor effects in PDX mouse model of TNBC; details: A 10 mg/kg SC BID 3 days on/4 off ×4, B 7.5 mg/kg PO BID×28, versus vehicle
From the text: as §1, §2, §3, §4, §5, §6, §7

[12] = system: PDX TNBC Model ST430; test: Antitumor effects in PDX mouse model of TNBC; details: A 10 mg/kg SC BID 3 days on/4 off ×4, B 7.5 mg/kg PO BID×28, versus vehicle
From the text: as §1, §2, §3, §4, §5, §6, §7

[13] = system: PDX TNBC Model ST996; test: Antitumor effects in PDX mouse model of TNBC; details: A 10 mg/kg SC BID 3 days on/4 off ×4, B 7.5 mg/kg PO BID×28, versus vehicle
From the text: as §1, §2, §3, §4, §5, §6, §7

[14] = system: PDX mouse models of TNBC; test: Antitumor effects across the panel of 40 PDX mouse models of TNBC; details: range across PDX TNBC models of Table 4
From the text: Establish PDX tumor models from viable human tumor tissue and serially passage in immunocompromised female mice a limited number of times. Using tumor fragments harvested from donor host animals, perform unilateral subcutaneous implants from a specific passage of the PDX tumor model on the flanks of the experimental animals. When tumor volumes reach approximately 150-250 mm^3 in size, randomize the animals by treatment arm by randomization techniques well known in the art and place into their respective treatment groups using 1 animal per treatment group (3 animals in an untreated group). […]
as §3, with “Calculate % ΔT/ΔC values using the formula % ΔT/ΔC=100(YT−1)/(YC−1), whereby YT or YC=geometric mean relative volume of the compound treated group or the control group, respectively.” left out, “Note that negative values indicate regression. We collectively refer to % ΔT/ΔC and % Regression as % Response.” left out

Row | Compound | % Rsp. (% ΔT/ΔC or % Regression) [1] | % Rsp. (% ΔT/ΔC or % Regression) [2] | % Rsp. (% ΔT/ΔC or % Regression) [3] | % Rsp. (% ΔT/ΔC or % Regression) [4] | % Rsp. (% ΔT/ΔC or % Regression) [5] | % Rsp. (% ΔT/ΔC or % Regression) [6] | % Rsp. (% ΔT/ΔC or % Regression) [7] | % Rsp. (% ΔT/ΔC or % Regression) [8] | % Rsp. (% ΔT/ΔC or % Regression) [9] | % Rsp. (% ΔT/ΔC or % Regression) [10] | % Rsp. (% ΔT/ΔC or % Regression) [11] | % Rsp. (% ΔT/ΔC or % Regression) [12] | % Rsp. (% ΔT/ΔC or % Regression) [13] | efficacy values, % response, range over the models [14]
1 | CO[C@@H](C)Cn1c(=O)n(C)c2cnc3ccc(-c4cncc(C(C)(C)O)c4)cc3c21 [Compound B, 8-[5-(1-hydroxy-1-methylethyl)pyridin-3-yl]-1-[(2S)-2-methoxypropyl]-3-methyl-1,3-dihydro-2H-imidazo[4,5-c]quinolin-2-one] | 28.1% | 8.6% | −31.0% | 86.5% | 7.7% | −6.9% | 61.2% | 121.1% | 163.0% | 54.0% | 76.8% | 59.2% | 23.5% | 163% to −31
2 | COc1cccc(OCCCN)c1-c1cc(Nc2cnc(C#N)cn2)n[nH]1.CS(=O)(=O)O [Compound A, 5-(5-(2-(3-aminopropoxy)-6-methoxyphenyl)-1H-pyrazol-3-ylamino)pyrazine-2-carbonitrile methanesulfonate hydrate] | 52.3% | 41.3% | −39.0% | −23.6% | 20.3% | 2.3% | 49.9% | 9.6% | 126.1% | 2.1% | −74.6% | 80.9% | 0.7% | 126.1% to −100
